The values below come from patent US20240239752A1, “BICYCLIC HETEROAROMATIC INHIBITORS OF KLK5” (BioCryst Pharmaceuticals, Inc., priority 2021, published 2024).

As usually defined, the IC50 is the midpoint of a concentration-inhibition curve.

The test concerns the target T1, recombinant human KLK5 (Homo sapiens, UniProt Q9Y337).
T1 construct: purchased Novoprotein or R&D Systems C415 or 1108-SE
T1 sequence (Q9Y337 23-293): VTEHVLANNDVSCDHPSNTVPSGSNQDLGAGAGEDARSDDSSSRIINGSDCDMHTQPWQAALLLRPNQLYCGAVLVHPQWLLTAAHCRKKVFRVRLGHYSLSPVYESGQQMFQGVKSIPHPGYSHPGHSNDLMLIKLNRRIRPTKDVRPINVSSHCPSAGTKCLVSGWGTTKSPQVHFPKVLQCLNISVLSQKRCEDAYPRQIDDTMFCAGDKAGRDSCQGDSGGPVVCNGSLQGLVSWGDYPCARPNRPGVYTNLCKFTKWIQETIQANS
The test is described as follows: Kallikrein (KLK) 5 enzymatic assay (Boc-VPR-AMC fluorogenic substrate). The note with it: recombinant human KLK5 0.1 μg/well, Boc-VPR-AMC 100 μM, pH 7.5, room temperature, 1% DMSO; tested a minimum of three times. It counts as biochemical. In a few lines:
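Fluorogenic rate assay at pH 7.5 (0.1 M NaH2PO4, 1% DMSO, room temperature), run at least three times per compound. Compound was premixed with 0.1 μg/well recombinant human KLK5 before adding 100 μM Boc-VPR-AMC; AMC release was read at ex 380/em 460 nm, and IC50 derived from inhibition of rate vs DMSO control.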

For the compound `Nc1nccc2c(-c3ccc4c(c3)[C@H](Oc3cc(F)ccc3CC(=O)O)CC4)cccc12` [Compound 422b, (R)-2-(2-((6-(1-aminoisoquinolin-5-yl)-2,3-dihydro-1H-inden-1-yl)oxy)-4-fluorophenyl)acetic acid], the 50% inhibitory concentration (IC50) is less than 1000 nM.

As to `N#Cc1ccc(CC(=O)O)c(O[C@@H]2CCc3ccc(-c4ccc5ccnc(N)c5c4)cc32)c1` [Compound 423c, (R)-2-(2-((6-(1-aminoisoquinolin-7-yl)-2,3-dihydro-1H-inden-1-yl)oxy)-4-cyanophenyl)acetic acid], the IC50 is less than 1000 nM.

`N#Cc1ccc(CC(=O)O)c(O[C@@H]2CCc3ccc(-c4cccc5c(N)nccc45)cc32)c1` [Compound 424b, (R)-2-(2-((6-(1-aminoisoquinolin-5-yl)-2,3-dihydro-1H-inden-1-yl)oxy)-4-cyanophenyl)acetic acid]: the IC50 is less than 1000 nM.

Consider `Cc1ccc(CC(=O)O)c(O[C@@H]2CCc3ccc(-c4ccc5ccnc(N)c5c4)cc32)c1` [Compound 425c, (R)-2-(2-((6-(1-aminoisoquinolin-7-yl)-2,3-dihydro-1H-inden-1-yl)oxy)-4-methylphenyl)acetic acid], for which the IC50 was less than 1000 nM.

`Cc1ccc(CC(=O)O)c(O[C@@H]2CCc3ccc(-c4cccc5c(N)nccc45)cc32)c1` [Compound 426b, (R)-2-(2-((6-(1-aminoisoquinolin-5-yl)-2,3-dihydro-1H-inden-1-yl)oxy)-4-methylphenyl)acetic acid]: the IC50 was less than 1000 nM.

As to `Nc1nccc2ccc(-c3ccc4c(c3)[C@H](Oc3cc(C(F)(F)F)ccc3CC(=O)O)CC4)cc12` [Compound 427c, (R)-2-(2-((6-(1-aminoisoquinolin-7-yl)-2,3-dihydro-1H-inden-1-yl)oxy)-4-(trifluoromethyl)phenyl)acetic acid], the IC50 is less than 1000 nM.

In the case of `Nc1nccc2c(-c3ccc4c(c3)[C@H](Oc3cc(C(F)(F)F)ccc3CC(=O)O)CC4)cccc12` [Compound 428b, (R)-2-(2-((6-(1-aminoisoquinolin-5-yl)-2,3-dihydro-1H-inden-1-yl)oxy)-4-(trifluoromethyl)phenyl)acetic acid], the IC50 is less than 1000 nM.

For `N#Cc1cccc(CC(=O)O)c1O[C@@H]1CCc2ccc(-c3ccc4ccnc(N)c4c3)cc21` [Compound 429d, (R)-2-(2-((6-(1-aminoisoquinolin-7-yl)-2,3-dihydro-1H-inden-1-yl)oxy)-3-cyanophenyl)acetic acid], the IC50 fell in the range of 1000 to 10000 nM.

As for `N#Cc1cccc(CC(=O)O)c1O[C@@H]1CCc2ccc(-c3cccc4c(N)nccc34)cc21` [Compound 430b, (R)-2-(2-((6-(1-aminoisoquinolin-5-yl)-2,3-dihydro-1H-inden-1-yl)oxy)-3-cyanophenyl)acetic acid], the IC50 is 1000 to 10000 nM.

Regarding `COc1ccc(O[C@@H]2CCc3ccc(-c4cccc5c(N)nccc45)cc32)c(CC(=O)O)c1` [Compound 431c, (R)-2-(2-((6-(1-aminoisoquinolin-5-yl)-2,3-dihydro-1H-inden-1-yl)oxy)-5-methoxyphenyl)acetic acid], the IC50 was less than 1000 nM.

With `N#Cc1cccc(O[C@@H]2CCc3ccc(-c4ccc5ccnc(N)c5c4)cc32)c1CC(=O)O` [Compound 432c, (R)-2-(2-((6-(1-aminoisoquinolin-7-yl)-2,3-dihydro-1H-inden-1-yl)oxy)-6-cyanophenyl)acetic acid], the IC50 lay in the range of 1000 to 10000 nM.

With `N#Cc1cccc(O[C@@H]2CCc3ccc(-c4cccc5c(N)nccc45)cc32)c1CC(=O)O` [Compound 433b, (R)-2-(2-((6-(1-aminoisoquinolin-5-yl)-2,3-dihydro-1H-inden-1-yl)oxy)-6-cyanophenyl)acetic acid], the IC50 is less than 1000 nM.

As for `Nc1nccc2ccc(-c3ccc4c(c3)[C@H](Oc3cccc(OC(F)(F)F)c3CC(=O)O)CC4)cc12` [Compound 434c, (R)-2-(2-((6-(1-aminoisoquinolin-7-yl)-2,3-dihydro-1H-inden-1-yl)oxy)-6-(trifluoromethoxy)phenyl)acetic acid], the IC50 fell in the range of 1000 to 10000 nM.

Turning to `Nc1nccc2c(-c3ccc4c(c3)[C@H](Oc3cccc(OC(F)(F)F)c3CC(=O)O)CC4)cccc12` [Compound 435b, (R)-2-(2-((6-(1-aminoisoquinolin-5-yl)-2,3-dihydro-1H-inden-1-yl)oxy)-6-(trifluoromethoxy)phenyl)acetic acid], the half-maximal inhibitory concentration (IC50) is less than 1000 nM.

For the compound `CCN1CCC2(CC1)C[C@@H](Oc1ccccc1CC(=O)O)c1cc(-c3ccc4ccnc(N)c4c3)ccc12` [Compound 436b, (R)-2-(2-((5-(1-aminoisoquinolin-7-yl)-1′-ethyl-2,3-dihydrospiro[indene-1,4′-piperidin]-3-yl)oxy)phenyl)acetic acid], the IC50 was less than 1000 nM.

For the compound `CC1(C)Cc2ccc(-c3cccc4c(N)nccc34)cc2C1Oc1ccccc1CC(=O)O` (centres unmarked) [Compound 437f, 2-(2-((6-(1-aminoisoquinolin-5-yl)-2,2-dimethyl-2,3-dihydro-1H-inden-1-yl)oxy)phenyl)acetic acid], the IC50 was less than 1000 nM.

As for `CC1(C)Cc2ccc(-c3cccc4c(N)nccc34)cc2C1Oc1cc(F)ccc1CC(=O)O` (centres unmarked) [Compound 438c, 2-(2-((6-(1-aminoisoquinolin-5-yl)-2,2-dimethyl-2,3-dihydro-1H-inden-1-yl)oxy)-4-fluorophenyl)acetic acid], the IC50 was less than 1000 nM.

In the case of `CC1(C)Cc2ccc(-c3ccc4ccnc(N)c4c3)cc2C1Oc1cc(F)ccc1CC(=O)O` (centres unmarked) [Compound 439b, 2-(2-((6-(1-aminoisoquinolin-7-yl)-2,2-dimethyl-2,3-dihydro-1H-inden-1-yl)oxy)-4-fluorophenyl)acetic acid], the IC50 lay within 1000 to 10000 nM.

`COc1ccc(CC(=O)O)c(OC2c3cc(-c4cccc5c(N)nccc45)ccc3CC2(C)C)c1` (centres unmarked) [Compound 440c, 2-(2-((6-(1-aminoisoquinolin-5-yl)-2,2-dimethyl-2,3-dihydro-1H-inden-1-yl)oxy)-4-methoxyphenyl)acetic acid]: the IC50 was less than 1000 nM.

On to `COc1ccc(CC(=O)O)c(OC2c3cc(-c4ccc5ccnc(N)c5c4)ccc3CC2(C)C)c1` (centres unmarked) [Compound 441b, 2-(2-((6-(1-aminoisoquinolin-7-yl)-2,2-dimethyl-2,3-dihydro-1H-inden-1-yl)oxy)-4-methoxyphenyl)acetic acid], for which the half-inhibitory concentration (IC50) lay in the range of 1000 to 10000 nM.

On to `Nc1nccc2c(-c3ccc4c(c3)C(Oc3cc(F)ccc3CC(=O)O)CC43CCCC3)cccc12` (centres unmarked) [Compound 442c, 2-(2-((5′-(1-aminoisoquinolin-5-yl)-2′,3′-dihydrospiro[cyclopentane-1,1′-inden]-3′-yl)oxy)-4-fluorophenyl)acetic acid], for which the IC50 was less than 1000 nM.

Turning to `Nc1nccc2ccc(-c3ccc4c(c3)C(Oc3cc(F)ccc3CC(=O)O)CC43CCCC3)cc12` (centres unmarked) [Compound 443b, 2-(2-((5′-(1-aminoisoquinolin-7-yl)-2′,3′-dihydrospiro[cyclopentane-1,1′-inden]-3′-yl)oxy)-4-fluorophenyl)acetic acid], the IC50 was less than 1000 nM.

Take `COCCC1(CCOC)CC(Oc2ccccc2CC(=O)O)c2cc(-c3ccc4ccnc(N)c4c3)ccc21` (centres unmarked) [Compound 446f, 2-(2-((6-(1-aminoisoquinolin-7-yl)-3,3-bis(2-methoxyethyl)-2,3-dihydro-1H-inden-1-yl)oxy)phenyl)acetic acid]: the IC50 was less than 1000 nM.
